Patent US10597388B2, “Pyridazinone herbicides” (FMC CORPORATION, priority 2014, dated 2020)

Assays:
Assay in all cases: Test D controlled growth environment herbicide test, pre- and postemergence
Type in all cases: in vivo
[1] = test system: Russian thistle (Salsola kali)
Method in brief: (§1)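 Pre-emergence: seeds sown in silt loam soil were sprayed with compound in a non-phytotoxic solvent mix containing surfactant. Post-emergence: plants at 2 to 18 cm (1- to 4-leaf stage) in peat moss/vermiculite medium got the same formulation. Visual 0–100 rating versus controls after 14 to 21 d.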

[2] = test system: blackgrass (Alopecurus myosuroides)
Method in brief: as §1

[3] = test system: bromegrass, downy (downy bromegrass, Bromus tectorum)
Method in brief: as §1

[4] = test system: chamomile (scentless chamomile, Matricaria inodora)
Method in brief: as §1

[5] = test system: chickweed (common chickweed, Stellaria media)
Method in brief: as §1

[6] = test system: deadnettle (henbit deadnettle, Lamium amplexicaule)
Method in brief: as §1

[7] = test system: field violet (Viola arvensis)
Method in brief: as §1

[8] = test system: kochia (Kochia scoparia)
Method in brief: as §1

[9] = test system: lambsquarters (Chenopodium album)
Method in brief: as §1

[10] = test system: radish, wild (wild radish, Raphanus raphanistrum)
Method in brief: as §1

[11] = test system: ryegrass, Italian (Italian ryegrass, Lolium multiflorum)
Method in brief: as §1

[12] = test system: speedwell (bird's-eye speedwell, Veronica persica)
Method in brief: as §1

[13] = test system: wheat, winter (winter wheat, Triticum aestivum)
Method in brief: as §1

[14] = test system: windgrass (Apera spica-venti)
Method in brief: as §1

[15] = Postemergence, 31 g ai/ha, scale 0 to 100 (0 no effect, 100 complete control)
[16] = Postemergence, 125 g ai/ha, visual rating on scale 0 (no effect) to 100 (complete control), 14 to 21 d
[17] = Postemergence, 250 g ai/ha, scale 0 to 100 (0 no effect, 100 complete control)
[18] = Preemergence, 62 g ai/ha, scale 0 to 100 (0 no effect, 100 complete control)
[19] = Preemergence, 125 g ai/ha, scale 0 to 100 (0 no effect, 100 complete control)
[20] = Preemergence, 250 g ai/ha, scale 0 to 100, 0 no effect, 100 complete control
[21] = postemergence, 62 g ai/ha, scale 0 to 100, 0 no effect, 100 complete control

`Cc1nn(C)c(=O)c(-c2c(C)sc3ccc(Br)cc23)c1O` [Compound 22] was tested, and the “Russian Thistle plant response rating” value [1, 15] was 65, the “Plant response rating, Russian Thistle” value [1, 16] was 75 and the “Plant response rating, Russian Thistle” value [1, 17] was 85. The “Plant response rating (scale of 0 to 100), Russian Thistle” value ([1]; Preemergence, 31 g ai/ha) was 0, the “Plant response rating, Russian Thistle” value [1, 18] was 0 and the “Plant response rating, Russian Thistle” value [1, 19] was 0. The “Plant response rating, Russian Thistle” value [1, 20] was 20, the “Plant response rating, Russian Thistle” value [1, 21] was 70 and the “Blackgrass plant response rating” value [2, 15] was 15. For the same compound, the “Plant response rating, Blackgrass” value [2, 16] was 45, the “Plant response rating, Blackgrass” value [2, 17] was 70 and the “Plant response rating (scale of 0 to 100), Blackgrass” value ([2]; Preemergence, 31 g ai/ha) was 45. For the same compound, the “Plant response rating, Blackgrass” value [2, 18] was 45, the “Plant response rating, Blackgrass” value [2, 19] was 55 and the “Blackgrass plant response rating” value [2, 20] was 75. The “Plant response rating, Blackgrass” value [2, 21] was 20, the “Bromegrass, Downy plant response rating” value [3, 15] was 10 and the “Plant response rating, Bromegrass, Downy” value [3, 16] was 25. The “Plant response rating, Bromegrass, Downy” value [3, 17] was 25, the “Plant response rating (scale of 0 to 100), Bromegrass, Downy” value ([3]; Preemergence, 31 g ai/ha) was 0 and the “Plant response rating, Bromegrass, Downy” value [3, 18] was 5. The “Plant response rating, Bromegrass, Downy” value [3, 19] was 25, the “Plant response rating, Bromegrass, Downy” value [3, 20] was 80 and the “Plant response rating, Bromegrass, Downy” value [3, 21] was 10. The “Chamomile plant response rating” value [4, 15] was 80, the “Plant response rating, Chamomile” value [4, 16] was 85 and the “Plant response rating, Chamomile” value [4, 17] was 100. The “Plant response rating (scale of 0 to 100), Chamomile” value ([4]; Preemergence, 31 g ai/ha) was 95, the “Plant response rating, Chamomile” value [4, 18] was 100 and the “Plant response rating, Chamomile” value [4, 19] was 100. The “Plant response rating, Chamomile” value [4, 20] was 100, the “Plant response rating, Chamomile” value [4, 21] was 80 and the “Chickweed plant response rating” value [5, 15] was 85. The “Plant response rating, Chickweed” value [5, 16] was 98, the “Plant response rating, Chickweed” value [5, 17] was 100 and the “Plant response rating (scale of 0 to 100), Chickweed” value ([5]; Preemergence, 31 g ai/ha) was 95. For the same compound, the “Plant response rating, Chickweed” value [5, 18] was 100, the “Plant response rating, Chickweed” value [5, 19] was 100 and the “Plant response rating, Chickweed” value [5, 20] was 100. For the same compound, the “Plant response rating, Chickweed” value [5, 21] was 95, the “Deadnettle plant response rating” value [6, 15] was 10 and the “Plant response rating, Deadnettle” value [6, 16] was 45. The “Plant response rating, Deadnettle” value [6, 17] was 70, the “Plant response rating (scale of 0 to 100), Deadnettle” value ([6]; Preemergence, 31 g ai/ha) was 0 and the “Plant response rating, Deadnettle” value [6, 18] was 0. The “Plant response rating, Deadnettle” value [6, 19] was 15, the “Plant response rating, Deadnettle” value [6, 21] was 10 and the “Field Violet plant response rating” value [7, 15] was 70. For the same compound, the “Plant response rating, Field Violet” value [7, 16] was 75, the “Plant response rating, Field Violet” value [7, 17] was 95 and the “Plant response rating (scale of 0 to 100), Field Violet” value ([7]; Preemergence, 31 g ai/ha) was 20. The “Plant response rating, Field Violet” value [7, 18] was 65, the “Plant response rating, Field Violet” value [7, 19] was 80 and the “Plant response rating, Field Violet” value [7, 20] was 100. The “Plant response rating, Field Violet” value [7, 21] was 70, the “Kochia plant response rating” value [8, 15] was 80 and the “Plant response rating, Kochia” value [8, 16] was 100. The “Plant response rating, Kochia” value [8, 17] was 100, the “Plant response rating (scale of 0 to 100), Kochia” value ([8]; Preemergence, 31 g ai/ha) was 35 and the “Plant response rating, Kochia” value [8, 18] was 35. For the same compound, the “Plant response rating, Kochia” value [8, 19] was 50, the “Plant response rating, Kochia” value [8, 20] was 75 and the “Plant response rating, Kochia” value [8, 21] was 95. The “Lambsquarters plant response rating” value [9, 15] was 80, the “Plant response rating, Lambsquarters” value [9, 16] was 95 and the “Plant response rating, Lambsquarters” value [9, 17] was 98. For the same compound, the “Plant response rating (scale of 0 to 100), Lambsquarters” value ([9]; Preemergence, 31 g ai/ha) was 100, the “Plant response rating, Lambsquarters” value [9, 18] was 100 and the “Plant response rating, Lambsquarters” value [9, 19] was 100. For the same compound, the “Plant response rating, Lambsquarters” value [9, 20] was 100, the “Plant response rating, Lambsquarters” value [9, 21] was 85 and the “Radish, Wild plant response rating” value [10, 15] was 85. For the same compound, the “Plant response rating, Radish, Wild” value [10, 16] was 100, the “Plant response rating, Radish, Wild” value [10, 17] was 85 and the “Plant response rating (scale of 0 to 100), Radish, Wild” value ([10]; Preemergence, 31 g ai/ha) was 0. The “Plant response rating, Radish, Wild” value [10, 18] was 25, the “Plant response rating, Radish, Wild” value [10, 19] was 70 and the “Plant response rating, Radish, Wild” value [10, 20] was 80. The “Plant response rating, Radish, Wild” value [10, 21] was 75, the “Ryegrass, Italian plant response rating” value [11, 15] was 75 and the “Plant response rating, Ryegrass, Italian” value [11, 16] was 85. The “Plant response rating, Ryegrass, Italian” value [11, 17] was 90, the “Plant response rating (scale of 0 to 100), Ryegrass, Italian” value ([11]; Preemergence, 31 g ai/ha) was 85 and the “Plant response rating, Ryegrass, Italian” value [11, 18] was 90. For the same compound, the “Plant response rating, Ryegrass, Italian” value [11, 19] was 100, the “Plant response rating, Ryegrass, Italian” value [11, 20] was 100 and the “Plant response rating, Ryegrass, Italian” value [11, 21] was 80. For the same compound, the “Speedwell plant response rating” value [12, 15] was 60, the “Plant response rating, Speedwell” value [12, 16] was 65 and the “Plant response rating, Speedwell” value [12, 17] was 100. For the same compound, the “Plant response rating (scale of 0 to 100), Speedwell” value ([12]; Preemergence, 31 g ai/ha) was 0, the “Plant response rating, Speedwell” value [12, 18] was 0 and the “Plant response rating, Speedwell” value [12, 19] was 50. For the same compound, the “Plant response rating, Speedwell” value [12, 20] was 100, the “Plant response rating, Speedwell” value [12, 21] was 60 and the “Wheat, Winter plant response rating” value [13, 15] was 5. For the same compound, the “Plant response rating, Wheat, Winter” value [13, 16] was 15, the “Plant response rating, Wheat, Winter” value [13, 17] was 15 and the “Plant response rating (scale of 0 to 100), Wheat, Winter” value ([13]; Preemergence, 31 g ai/ha) was 0. The “Plant response rating, Wheat, Winter” value [13, 18] was 0, the “Plant response rating, Wheat, Winter” value [13, 19] was 0 and the “Plant response rating, Wheat, Winter” value [13, 20] was 5. The “Plant response rating, Wheat, Winter” value [13, 21] was 5, the “Windgrass plant response rating” value [14, 15] was 15 and the “Plant response rating, Windgrass” value [14, 16] was 35. For the same compound, the “Plant response rating, Windgrass” value [14, 17] was 55, the “Plant response rating (scale of 0 to 100), Windgrass” value ([14]; Preemergence, 31 g ai/ha) was 0 and the “Plant response rating, Windgrass” value [14, 18] was 20. For the same compound, the “Plant response rating, Windgrass” value [14, 19] was 70, the “Plant response rating, Windgrass” value [14, 20] was 80 and the “Plant response rating, Windgrass” value [14, 21] was 20.
